Converted amounts (≈) assume the structure as drawn.
Tests used:
Staphylococcus aureus = settings: cited from earlier work
MRSA = settings: cited from earlier work
[1] = parallel artificial membrane permeability assay; type: in vitro ADME; settings: 200 μM in PBS pH 7.4, five hours, room temperature
[2] = test system: Staphylococcus aureus ATCC6538; test: MIC/MBC by micro-dilution broth method; type: cell-based; settings: S. aureus ATCC 6538
[3] = test system: Staphylococcus epidermidis ATCC12228; test: MIC/MBC by micro-dilution broth method; type: cell-based; settings: S. epidermidis ATCC 12228
[4] = test system: Staphylococcus aureus ATCC43300; test: MIC/MBC by micro-dilution broth method; type: cell-based; settings: S. aureus ATCC 43300
[5] = test system: Micrococcus luteus ATCC10240; test: MIC/MBC by micro-dilution broth method; type: cell-based
[6] = test system: Streptococcus mutans ATCC25175; test: MIC/MBC by micro-dilution broth method; type: cell-based; settings: S. mutans ATCC 25175

In the case of `O=C1NC(=S)SC1=Cc1ccc(F)c(F)c1F` [5-(2,3,4-trifluorobenzylidene)-rhodanine], the concentration inhibiting growth (Staphylococcus aureus) is listed as 0.5 mg/L and the concentration inhibiting growth (MRSA) is listed as 32 mg/L.
With `O=C(O)CN1C(=O)/C(=C/c2ccc(-c3ccc(N(c4ccccc4)c4ccccc4)cc3)cc2)SC1=S` [5a, (Z)-2-(5-((4′-(Diphenylamino)-(1,1′-biphenyl)-4-yl)methylene)-4-oxo-2-thioxothiazolidin-3-yl)acetic acid] the “ability to penetrate the membrane (PAMPA)” value (shortened to “ability”) [1] was “none of the tested compounds had the ability to penetrate the cell membrane”.
With `O=C(O)CN1C(=O)/C(=C/c2ccc(-c3ccc(N(c4ccccc4)c4ccccc4)cc3)c3ccccc23)SC1=S` [5b, (Z)-2-(5-((4-(4-(Diphenylamino)phenyl)naphthalen-1-yl)methylene)-4-oxo-2-thioxothiazolidin-3-yl)acetic acid] the “ability” value [1] was “none of the tested compounds had the ability to penetrate the cell membrane”.
For `O=C(O)CN1C(=O)/C(=C/c2c3ccccc3c(-c3ccc(N(c4ccccc4)c4ccccc4)cc3)c3ccccc23)SC1=S` [5c, (Z)-2-(5-((10-(4-(Diphenylamino)phenyl)anthracen-9-yl)methylene)-4-oxo-2-thioxothiazolidin-3-yl)acetic acid], the “ability” value [1] was “none of the tested compounds had the ability to penetrate the cell membrane”.
Work on `O=C(O)CN1C(=O)/C(=C/c2ccc(-c3ccc(N(c4ccccc4)c4ccccc4)cc3)cc2)NC1=S` [7a, (Z)-2-(5-((4′-(Diphenylamino)-(1,1′-biphenyl)-4-yl)methylene)-4-oxo-2-thioxoimidazolidin-3-yl)acetic acid] yielded an MIC [2] of 1.95 µg/mL (≈ 3.86 µM), an MIC [3] of 1.95 µg/mL (≈ 3.86 µM) and an MIC [4] of 1.95 µg/mL (≈ 3.86 µM). It also gave an MIC ([5]; M. luteus ATCC 10240) of 1.95 µg/mL (≈ 3.86 µM), an MIC/MBC ([5]; ratio, ATCC 10240) of 16 and an MIC [6] of 62.5 µg/mL (≈ 124 µM).
